Results on 17 compounds are retold here after patent US8148391B2 (Cephalon, Inc., priority 2006, dated 2012).

The target of experiment [1] is T1, baculovirus-expressed ALK (Homo sapiens, UniProt Q9UM73).
T1 construct: host or cells: baculovirus expression system
Description: ALK Kinase Assay (ELISA-type, time-resolved fluorescence). Format: biochemical. The note with it: ALK kinase inhibition, 1 μM ATP (Km level); read-out: ALK Activity. Put shortly: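 Substrate coating: phospholipase C-γ, 10 μg/mL in TBS. Kinase step: 30 ng/ml ALK, 15 min, 37° C. Detection and analysis: Eu-N1 PT66 antibody, with IC50 fitted as a sigmoidal variable-slope dose-response curve.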

Experiment [2] addresses T2, c-Met (cytoplasmic domain) (Homo sapiens, UniProt P08581).
T2 construct: 10 ng/mL c-Met (cytoplasmic domain, Invitrogen Corporation #PV3143); purchased Invitrogen Corporation PV3143
Description: c-Met Kinase Assay (same methods as for ALK, with modifications). The note with it: c-Met kinase inhibition, 1 μM ATP (Km level); read-out: cMet Activity. It counts as biochemical. Put shortly:
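This plate-based kinase format uses immobilized phospholipase C-γ as substrate, phosphorylated by c-Met cytoplasmic domain (10 ng/mL) at 37° C for 15 minutes.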

Structures can show the parent of a compound that is named as a salt.

T2 sequence (P08581 956-1390 limits assumed): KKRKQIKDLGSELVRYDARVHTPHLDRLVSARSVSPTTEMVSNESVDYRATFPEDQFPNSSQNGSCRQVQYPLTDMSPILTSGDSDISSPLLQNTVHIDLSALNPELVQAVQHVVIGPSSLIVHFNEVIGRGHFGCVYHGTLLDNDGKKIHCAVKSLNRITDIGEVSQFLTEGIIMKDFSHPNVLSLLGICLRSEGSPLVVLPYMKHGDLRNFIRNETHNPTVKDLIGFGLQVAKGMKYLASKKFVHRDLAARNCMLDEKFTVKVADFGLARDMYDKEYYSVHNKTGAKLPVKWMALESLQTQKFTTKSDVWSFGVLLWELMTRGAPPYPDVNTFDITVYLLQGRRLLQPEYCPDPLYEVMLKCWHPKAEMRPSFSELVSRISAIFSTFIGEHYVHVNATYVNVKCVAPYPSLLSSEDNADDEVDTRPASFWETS
T1 sequence (Q9UM73 19-1620): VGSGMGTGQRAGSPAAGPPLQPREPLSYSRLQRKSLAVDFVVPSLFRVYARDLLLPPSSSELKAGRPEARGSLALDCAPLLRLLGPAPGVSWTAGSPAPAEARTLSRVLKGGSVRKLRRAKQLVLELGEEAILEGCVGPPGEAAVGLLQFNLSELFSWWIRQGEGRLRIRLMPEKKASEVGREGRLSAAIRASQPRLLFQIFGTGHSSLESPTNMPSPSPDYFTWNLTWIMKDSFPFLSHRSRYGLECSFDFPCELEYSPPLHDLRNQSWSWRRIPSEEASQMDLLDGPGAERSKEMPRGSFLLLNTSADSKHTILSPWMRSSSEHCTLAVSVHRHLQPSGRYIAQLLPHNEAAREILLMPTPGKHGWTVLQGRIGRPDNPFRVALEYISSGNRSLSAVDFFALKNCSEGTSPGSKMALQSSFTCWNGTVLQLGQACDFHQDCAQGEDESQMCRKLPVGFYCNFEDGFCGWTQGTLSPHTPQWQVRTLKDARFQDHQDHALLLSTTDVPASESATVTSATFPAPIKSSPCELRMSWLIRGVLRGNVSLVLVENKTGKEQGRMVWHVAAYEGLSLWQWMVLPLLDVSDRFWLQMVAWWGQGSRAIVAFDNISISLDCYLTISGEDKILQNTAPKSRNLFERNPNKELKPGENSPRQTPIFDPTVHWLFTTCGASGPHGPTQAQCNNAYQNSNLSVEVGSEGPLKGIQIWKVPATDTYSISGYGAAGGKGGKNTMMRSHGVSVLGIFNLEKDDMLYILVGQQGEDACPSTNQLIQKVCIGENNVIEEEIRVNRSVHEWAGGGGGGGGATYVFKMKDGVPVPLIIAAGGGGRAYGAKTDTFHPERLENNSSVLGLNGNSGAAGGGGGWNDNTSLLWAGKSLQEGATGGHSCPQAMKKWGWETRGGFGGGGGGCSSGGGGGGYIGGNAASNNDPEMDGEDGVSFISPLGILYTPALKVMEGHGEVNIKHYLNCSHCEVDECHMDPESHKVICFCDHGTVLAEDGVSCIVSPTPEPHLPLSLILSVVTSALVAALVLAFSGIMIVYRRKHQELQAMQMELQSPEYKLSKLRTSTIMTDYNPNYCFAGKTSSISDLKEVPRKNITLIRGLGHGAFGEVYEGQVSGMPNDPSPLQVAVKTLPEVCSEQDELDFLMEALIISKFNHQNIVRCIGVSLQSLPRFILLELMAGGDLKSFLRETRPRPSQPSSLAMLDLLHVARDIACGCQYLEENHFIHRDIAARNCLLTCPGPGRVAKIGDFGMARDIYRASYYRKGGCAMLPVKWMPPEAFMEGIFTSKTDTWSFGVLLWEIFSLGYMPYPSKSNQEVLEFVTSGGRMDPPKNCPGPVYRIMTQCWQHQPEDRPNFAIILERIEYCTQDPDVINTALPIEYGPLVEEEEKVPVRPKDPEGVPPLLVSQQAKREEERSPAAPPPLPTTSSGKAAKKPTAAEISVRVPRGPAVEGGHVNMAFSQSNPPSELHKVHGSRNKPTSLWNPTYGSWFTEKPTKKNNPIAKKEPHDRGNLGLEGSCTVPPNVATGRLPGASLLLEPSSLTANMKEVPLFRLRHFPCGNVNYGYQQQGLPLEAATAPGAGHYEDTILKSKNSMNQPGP

For the compound `COCCN1C2CCC1c1cc(Nc3ncc(Cl)c(Nc4c(F)cccc4C(=O)OC(C)C)n3)ccc1C2` (stereo not shown) [Example 457, 2-{5-Chloro-2-[12-(2-methoxy-ethyl)-12-aza-tricyclo[7.2.1.0(2,7)]dodeca-2(7),3,5-trien-4-ylamino]-pyrimidin-4-ylamino}-3-fluoro-benzoic acid isopropyl ester], the IC50 in experiment [1] and in experiment [2] was 100 to 1000 nM each time.
With `CNC(=O)c1cccc(Cl)c1Nc1nc(Nc2ccc3c(c2)N(C)CCNC3)ncc1Cl` [Example 460, 3-Chloro-2-[5-chloro-2-(1-methyl-2,3,4,5-tetrahydro-1H-benzo[e][1,4]diazepin-8-ylamino)-pyrimidin-4-ylamino]-N-methyl-benzamide], the IC50 is 100 to 1000 nM in experiment [1] and less than 100 nM in experiment [2].
`COc1cc2c(cc1Nc1ncc(Cl)c(N[C@@H]3CCCC[C@H]3NS(C)(=O)=O)n1)CCN(C[C@H](O)C(F)(F)F)CC2` [Example 461, N-((1R,2R)-2-{5-Chloro-2-[8-methoxy-3-((S)-3,3,3-trifluoro-2-hydroxy-propyl)-2,3,4,5-tetrahydro-1H-benzo[d]azepin-7-ylamino]-pyrimidin-4-ylamino}-cyclohexyl)-methanesulfonamide]: the figures for the IC50 in experiment [1] and in experiment [2] were less than 100 nM and greater than 10000 nM, respectively.
In the case of `COc1cc2c(cc1Nc1ncc(Cl)c(Nc3ccc(N4CCOCC4)cc3OC)n1)CCN(C[C@H](O)C(F)(F)F)CC2` [Example 462, (S)-3-{7-[5-Chloro-4-(2-methoxy-4-morpholin-4-yl-phenylamino)-pyrimidin-2-ylamino]-8-methoxy-1,2,4,5-tetrahydro-benzo[d]azepin-3-yl}-1,1,1-trifluoro-propan-2-ol], the IC50 is less than 100 nM in experiment [1] and greater than 10000 nM in experiment [2].
Taken in the same sequence, the figures for `CN1CCNCc2ccc(Nc3ncc(Cl)c(Nc4ccccc4NS(C)(=O)=O)n3)cc21` [Example 471, N-{2-[5-Chloro-2-(1-methyl-2,3,4,5-tetrahydro-1H-benzo[e][1,4]diazepin-8-ylamino)-pyrimidin-4-ylamino]-phenyl}-methanesulfonamide hydrochloride] were less than 100 nM and 1000 to 10000 nM.
With `COC(=O)CN1CCN(C)c2cc(Nc3ncc(Cl)c(Nc4ccccc4NS(C)(=O)=O)n3)ccc2C1` [Example 472, {8-[5-Chloro-4-(2-methanesulfonylamino-phenylamino)-pyrimidin-2-ylamino]-1-methyl-1,2,3,5-tetrahydro-benzo[e][1,4]diazepin-4-yl}-acetic acid methyl ester], the IC50 in experiment [1] is less than 100 nM; in experiment [2], 100 to 1000 nM.
Taken in the same sequence, the figures for `CC(=O)OCCN1CCN(C)c2cc(Nc3ncc(Cl)c(Nc4ccccc4NS(C)(=O)=O)n3)ccc2C1` [Example 473, Acetic acid 2-{8-[5-chloro-4-(2-methanesulfonylamino-phenylamino)-pyrimidin-2-ylamino]-1-methyl-1,2,3,5-tetrahydro-benzo[e][1,4]diazepin-4-yl}-ethyl ester] were less than 100 nM and 100 to 1000 nM.
Regarding `CN1CCN(S(C)(=O)=O)Cc2ccc(Nc3ncc(Cl)c(Nc4ccccc4NS(C)(=O)=O)n3)cc21` [Example 474, N-{2-[5-Chloro-2-(4-methanesulfonyl-1-methyl-2,3,4,5-tetrahydro-1H-benzo[e][1,4]diazepin-8-ylamino)-pyrimidin-4-ylamino]-phenyl}-methanesulfonamide], the IC50 was less than 100 nM in experiment [1] and 100 to 1000 nM in experiment [2].
For the compound `CN1CCNCc2ccc(Nc3ncc(Cl)c(N[C@@H]4CCCC[C@H]4NS(C)(=O)=O)n3)cc21` [Example 475, N-{(1R,2R)-2-[5-Chloro-2-(1-methyl-2,3,4,5-tetrahydro-1H-benzo[e][1,4]diazepin-8-ylamino)-pyrimidin-4-ylamino]-cyclohexyl}-methanesulfonamide], the values for the IC50 in experiment [1] and in experiment [2] were less than 100 nM and 1000 to 10000 nM, respectively.
In the same order, the values of `CC(=O)OCCN1CCN(C)c2cc(Nc3ncc(Cl)c(N[C@@H]4CCCC[C@H]4NS(C)(=O)=O)n3)ccc2C1` [Example 476, Acetic acid 2-{8-[5-chloro-4-((1R,2R)-2-methanesulfonylamino-cyclohexylamino)-pyrimidin-2-ylamino]-1-methyl-1,2,3,5-tetrahydro-benzo[e][1,4]diazepin-4-yl}-ethyl ester] are less than 100 nM and 1000 to 10000 nM.
Taken in the same sequence, the figures for `CN1CCN(S(C)(=O)=O)Cc2ccc(Nc3ncc(Cl)c(N[C@@H]4CCCC[C@H]4NS(C)(=O)=O)n3)cc21` [Example 477, N-{(1R,2R)-2-[5-Chloro-2-(4-methanesulfonyl-1-methyl-2,3,4,5-tetrahydro-1H-benzo[e][1,4]diazepin-8-ylamino)-pyrimidin-4-ylamino]-cyclohexyl}-methanesulfonamide] were less than 100 nM and 1000 to 10000 nM.
Take `CN1CCN(CCO)Cc2ccc(Nc3ncc(Cl)c(N[C@@H]4CCCC[C@H]4NS(C)(=O)=O)n3)cc21` [Example 478, N-((1R,2R)-2-{5-Chloro-2-[4-(2-hydroxy-ethyl)-1-methyl-2,3,4,5-tetrahydro-1H-benzo[e][1,4]diazepin-8-ylamino]-pyrimidin-4-ylamino}-cyclohexyl)-methanesulfonamide]: the IC50 in experiment [1] was less than 100 nM; in experiment [2], 1000 to 10000 nM.
In the case of `CN1CCN(CC2CC2)Cc2ccc(Nc3ncc(Cl)c(N[C@@H]4CCCC[C@H]4NS(C)(=O)=O)n3)cc21` [Example 479, N-{(1R,2R)-2-[5-Chloro-2-(4-cyclopropylmethyl-1-methyl-2,3,4,5-tetrahydro-1H-benzo[e][1,4]diazepin-8-ylamino)-pyrimidin-4-ylamino]-cyclohexyl}-methanesulfonamide], the IC50 in experiment [1] was less than 100 nM; in experiment [2] it was 1000 to 10000 nM.
Taken in the same sequence, the figures for `C#CCN1CCN(C)c2cc(Nc3ncc(Cl)c(N[C@@H]4CCCC[C@H]4NS(C)(=O)=O)n3)ccc2C1` [Example 480, N-{(1R,2R)-2-[5-Chloro-2-(1-methyl-4-prop-2-ynyl-2,3,4,5-tetrahydro-1H-benzo[e][1,4]diazepin-8-ylamino)-pyrimidin-4-ylamino]-cyclohexyl}-methanesulfonamide] were less than 100 nM and 1000 to 10000 nM.
In the same order, the values of `CN(C)C(=O)N1CCN(C)c2cc(Nc3ncc(Cl)c(N[C@@H]4CCCC[C@H]4NS(C)(=O)=O)n3)ccc2C1` [Example 481, 8-[5-Chloro-4-((1R,2R)-2-methanesulfonylamino-cyclohexylamino)-pyrimidin-2-ylamino]-1-methyl-1,2,3,5-tetrahydro-benzo[e][1,4]diazepine-4-carboxylic acid dimethylamide] are less than 100 nM and 1000 to 10000 nM.
In the same order, the values of `CN1CCN(C(=O)n2ccnc2)Cc2ccc(Nc3ncc(Cl)c(N[C@@H]4CCCC[C@H]4NS(C)(=O)=O)n3)cc21` [Example 482, N-((1R,2R)-2-{5-Chloro-2-[4-(imidazole-1-carbonyl)-1-methyl-2,3,4,5-tetrahydro-1H-benzo[e][1,4]diazepin-8-ylamino]-pyrimidin-4-ylamino}-cyclohexyl)-methanesulfonamide] are less than 100 nM and 100 to 1000 nM.
On to `CNC(=O)c1ccccc1Nc1nc(Nc2ccc3c(c2)N(C)CCN(S(C)(=O)=O)C3)ncc1Cl` [Example 483, 2-[5-Chloro-2-(4-methanesulfonyl-1-methyl-2,3,4,5-tetrahydro-1H-benzo[e][1,4]diazepin-8-ylamino)-pyrimidin-4-ylamino]-N-methyl-benzamide], for which the IC50 in experiment [1] and in experiment [2] was less than 100 nM each time.
